Among the data in ChEMBL document CHEMBL3091332, “Recycling antimalarial leads for cancer: Antiproliferative properties of N-cinnamoyl chloroquine analogues” (Bioorg Med Chem Lett, 2013) are GI50 and IC50 values, retold here.

Bounds are passed on as bounds.

The nature of data set [1]: Antiproliferative activity against human HFF1 cells after 2 days by sulforhodamine B assay. The format is cell-based, HFF-1. In general terms: Sulforhodamine B stains cellular protein and so reports cell mass.
The test system of data set [2] is MCF7. Description: Antiproliferative activity against human MCF7 cells after 2 days by sulforhodamine B assay. The format is functional. Particulars: MCF7, 48 h.
In data set [3] the test system is Caco-2. Nature of the data set: Antiproliferative activity against human Caco2 cells after 2 days by sulforhodamine B assay. The conditions noted are these: Caco-2, 48 h. The format is functional.
The nature of data set [4]: Antiproliferative activity against human MKN28 cells after 2 days by sulforhodamine B assay. Particulars: MKN-28, 48 h. It counts as functional.
Data set [5] deals with Receptor tyrosine-protein kinase erbB-2 (Homo sapiens, UniProt P04626). Nature of the data set: Inhibition of human HER2.
Sequence of Receptor tyrosine-protein kinase erbB-2 (P04626 whole entry): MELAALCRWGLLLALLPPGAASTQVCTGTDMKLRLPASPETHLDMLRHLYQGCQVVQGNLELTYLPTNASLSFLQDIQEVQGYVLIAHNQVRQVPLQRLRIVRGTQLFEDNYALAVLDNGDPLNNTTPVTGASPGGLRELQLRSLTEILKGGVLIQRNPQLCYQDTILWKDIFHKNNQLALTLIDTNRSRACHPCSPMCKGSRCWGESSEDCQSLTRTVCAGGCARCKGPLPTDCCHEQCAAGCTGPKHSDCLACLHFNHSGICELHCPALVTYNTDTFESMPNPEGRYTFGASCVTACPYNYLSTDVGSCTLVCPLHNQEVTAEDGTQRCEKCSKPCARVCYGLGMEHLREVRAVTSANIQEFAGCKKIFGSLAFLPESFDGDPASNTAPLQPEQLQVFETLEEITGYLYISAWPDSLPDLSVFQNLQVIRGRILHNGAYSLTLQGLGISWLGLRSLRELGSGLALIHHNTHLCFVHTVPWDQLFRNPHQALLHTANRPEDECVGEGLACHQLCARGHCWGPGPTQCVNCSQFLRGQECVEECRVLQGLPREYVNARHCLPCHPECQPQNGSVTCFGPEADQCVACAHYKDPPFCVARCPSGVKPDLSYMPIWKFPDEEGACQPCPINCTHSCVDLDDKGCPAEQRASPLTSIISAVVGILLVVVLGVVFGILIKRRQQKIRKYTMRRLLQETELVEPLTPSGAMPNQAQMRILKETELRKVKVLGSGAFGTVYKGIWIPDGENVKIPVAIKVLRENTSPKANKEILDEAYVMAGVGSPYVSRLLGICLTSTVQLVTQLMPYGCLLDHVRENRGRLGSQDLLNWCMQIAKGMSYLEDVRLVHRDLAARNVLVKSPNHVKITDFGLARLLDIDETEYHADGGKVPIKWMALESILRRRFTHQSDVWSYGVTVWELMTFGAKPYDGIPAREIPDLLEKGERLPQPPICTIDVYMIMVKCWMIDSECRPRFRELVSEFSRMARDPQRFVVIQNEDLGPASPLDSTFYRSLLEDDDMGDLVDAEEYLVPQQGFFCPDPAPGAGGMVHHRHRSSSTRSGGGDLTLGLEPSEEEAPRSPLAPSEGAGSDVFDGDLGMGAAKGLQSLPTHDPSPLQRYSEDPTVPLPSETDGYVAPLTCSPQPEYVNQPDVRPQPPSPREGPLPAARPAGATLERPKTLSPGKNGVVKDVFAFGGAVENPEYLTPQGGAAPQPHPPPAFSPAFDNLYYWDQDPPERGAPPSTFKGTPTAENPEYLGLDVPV

The GI50 is the concentration at which growth is held to half of that of the control. The low end stands for greater sensitivity of the cells, the high end for lower sensitivity of the cells. `O=C(/C=C/c1cccc(F)c1)NCCCCNc1ccnc2cc(Cl)ccc12` showed a GI50 at 48 h in data set [1] above 100 µM. The values for the 50% growth inhibitory concentration (GI50) in data set [2], in data set [3] and in data set [4] were 14.8 µM, 25.4 µM and 15.3 µM, respectively.

`O=C(/C=C/c1cccc([N+](=O)[O-])c1)NCCCCNc1ccnc2cc(Cl)ccc12` displayed a GI50 at 48 h in data set [1] above 100 µM. Moreover, the GI50 is 59.3 µM in data set [2], 19.3 µM in data set [3] and 16.2 µM in data set [4].

For the molecule `O=C(/C=C/c1ccccc1[N+](=O)[O-])NCCCCNc1ccnc2cc(Cl)ccc12`, the GI50 at 48 h in data set [1] was above 100 µM. Also, the GI50 was found to be 13.3 µM in data set [2], 11.9 µM in data set [3] and 15.1 µM in data set [4].

`COc1ccc(/C=C/C(=O)OCCCCNc2ccnc3cc(Cl)ccc23)cc1`: the GI50 at 48 h in data set [1] came to 75.2 µM. The GI50 in data set [2] turned out to be 5.08 µM; in data set [3] it was 17.3 µM; in data set [4], 6.6 µM.

Take `O=C(/C=C/c1ccccc1)NCCCCNc1ccnc2cc(Cl)ccc12`: the GI50 at 48 h in data set [1] is above 100 µM. Besides, the figures for the GI50 in data set [2], in data set [3] and in data set [4] were 14.8 µM, 24.1 µM and 16.2 µM, respectively.

In turn, `CC(C)c1ccc(/C=C/C(=O)NCCCCNc2ccnc3ccccc23)cc1` gave a concentration for 50% growth inhibition (GI50) at 48 h in data set [1] of 39.1 µM. Further, the GI50 in data set [2] was 5.24 µM; in data set [3], 6.75 µM; in data set [4], 5.55 µM.

In data set [1], `COc1cccc2c1C(=O)c1c(O)c3c(c(O)c1C2=O)C[C@@](O)(C(=O)CO)C[C@@H]3O[C@H]1C[C@H](N)[C@H](O)[C@H](C)O1` [DOXORUBICIN] returned a GI50 at 48 h above 400 µM. Further, the results for the GI50 in data set [2], in data set [3] and in data set [4] were 0.31 µM, 0.32 µM and 0.24 µM, respectively.

The molecule `CC(C)c1ccc(/C=C/C(=O)NCCCCCNc2ccnc3cc(Cl)ccc23)cc1` had a GI50 at 48 h in data set [1] above 100 µM. The GI50 is 20.1 µM in data set [2], 9.16 µM in data set [3] and 14 µM in data set [4].

`CC(C)c1ccc(/C=C/C(=O)NCCCCNc2ccnc3cc(Cl)ccc23)cc1`: the GI50 at 48 h in data set [1] is above 100 µM. The results for the 50% growth inhibitory concentration (GI50) in data set [2], in data set [3] and in data set [4] were 8.09 µM, 11.9 µM and 22.3 µM, respectively.

In the case of `O=C(/C=C/c1ccc(F)cc1)NCCCNc1ccnc2cc(Cl)ccc12`, growth in data set [1] was halved (GI50 at 48 h) at 44.8 µM. The GI50 in data set [2] is 5.24 µM; in data set [3], 44.1 µM; in data set [4], 34.7 µM.

As to `O=C(/C=C/c1ccc(F)cc1)NCCCCNc1ccnc2cc(Cl)ccc12`, in data set [1], the GI50 at 48 h was above 100 µM. For the same molecule, the results for the GI50 in data set [2], in data set [3] and in data set [4] were 12.5 µM, 15 µM and 11.8 µM, respectively.

In data set [1], `COc1ccc(/C=C/C(=O)NCCCCNc2ccnc3cc(Cl)ccc23)cc1` returned a GI50 at 48 h above 100 µM. In addition, the GI50 in data set [2] turned out to be 25.2 µM; in data set [3], 30.7 µM; in data set [4], 16.9 µM.

`CCN(CC)CCCC(C)Nc1ccnc2cc(Cl)ccc12` (stereo unspecified) [CHLOROQUINE] gave a GI50 at 48 h in data set [1] above 100 µM. Moreover, the GI50 turned out to be 64.3 µM in data set [2], 38.7 µM in data set [3] and 44.4 µM in data set [4].

The IC50 is the concentration that gives 50% inhibition. As for `CCOc1cc2ncc(C#N)c(Nc3ccc(OCc4ccccn4)cc3)c2cc1NC(=O)/C=C/CN(C)C`, in data set [5], the IC50 was 0.059 µM.

`COc1ccc(/C=C/C(=O)NCCCCNc2ccncc2)cc1` came in with a GI50 at 48 h in data set [1] above 100 µM. The GI50 is 77.1 µM in data set [2], above 100 µM in data set [3] and 84.5 µM in data set [4].

Molecule `CC(C)c1ccc(/C=C/C(=O)NCCCCN2CCOCC2)cc1` returned a GI50 at 48 h in data set [1] above 100 µM. In addition, the GI50 in data set [2] came to 32.7 µM; in data set [3], 29.6 µM; in data set [4], 72.5 µM.
